Results published in US10611740B2, “Aryl dihydro-2H-benzo[b][1,4]oxazine sulfonamide and related compounds for use as agonists of RORγ and the treatment of disease” (Lycera Corporation, priority 2015, dated 2020).

Tests used:
RORγ-LBD = target: T1, RORγ-LBD (Homo sapiens, UniProt P51449); experiment: RORγ-Ligand Binding Domain (LBD) TR-FRET Assay; type: biochemical;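 on TR-FRET Assay Max Response: 665/615 nm ratio relative to signal without ursolic acid or compound set at 100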
T1 construct: made in house; host or cells: SF9 cells (baculovirus)
T1 sequence (P51449 269-508 limits assumed): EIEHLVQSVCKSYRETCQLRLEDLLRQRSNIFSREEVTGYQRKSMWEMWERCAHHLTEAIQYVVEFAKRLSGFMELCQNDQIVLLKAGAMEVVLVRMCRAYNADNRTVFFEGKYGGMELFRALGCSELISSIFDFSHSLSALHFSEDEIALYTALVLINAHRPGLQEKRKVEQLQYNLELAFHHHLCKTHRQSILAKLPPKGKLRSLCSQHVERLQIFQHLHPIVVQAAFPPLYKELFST
How it was run: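 SF9 lysate containing His-RORγ-LBD, ~3 nM final; coactivator peptide biotin-SRC1 LXXLL, 200 nM final; ursolic acid 2 μM final; DMSO 1% final; Tris pH 7.0 buffer with KCl, EDTA, DTT, BSA. TR-FRET format.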

Gal4-RORγ-LBD = target: T2, Gal4-RORγ-LBD (Homo sapiens, UniProt P51449); experiment: Gal4-RORγ Luciferase Reporter Assay in HEK-293T Cells; type: cell-based; conditions: HEK-293 cells
T2 construct: expressed in transfected cells; host or cells: HEK-293 cells (pcDNA3.1neo plasmid)
T2 sequence (P51449 269-508 limits assumed): T1 sequence (P51449 269-508 limits assumed)
How it was run: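 In transfected HEK-293 cells (Gal4-RORγ-LBD, Gal4-luciferase), test agents with 2 μM ursolic acid were incubated overnight at 37 °C before luminescent detection. Values are relative to the ursolic-acid-free, compound-free signal (100).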

[1] = luciferase reporter, with 2 μM ursolic acid

Row | Compound | EC50 (RORγ-LBD) [nM] | EC50 (Gal4-RORγ-LBD; [1]) [nM] | EC50 (Gal4-RORγ-LBD; 2 μM ursolic acid) [nM] | TR-FRET Assay Max Response (RORγ-LBD) | Gal4-RORγ Assay Max Response (Gal4-RORγ-LBD; [1]) | Gal4-RORγ Assay Max Response (Gal4-RORγ-LBD; 2 μM ursolic acid)
1 | O=C(NC[C@H]1CN(S(=O)(=O)c2cccc(C(F)(F)F)c2)c2cc(-c3cc(F)ccc3F)ccc2O1)c1cnco1 [Compound 30AK, (S)-N-((6-(2,5-difluorophenyl)-4-((3-(trifluoromethyl)phenyl)-sulfonyl)-3,4-dihydro-2H-benzo[b][1,4]oxazin-2-yl)methyl)oxazole-5-carboxamide] | < 500 | 500 to 5000 | – | **** (The symbol “****” indicates a value greater than 200) | ** (The symbol “**” indicates a value in the range of greater than 90 to 150) | –
2 | O=C(NC[C@H]1CN(S(=O)(=O)c2cccc(C(F)(F)F)c2)c2cc(-c3cc(F)ccc3F)ccc2O1)C1CCCC1 [Compound 30AZ, (S)-N-((6-(2,5-difluorophenyl)-4-((3-(trifluoromethyl)phenyl)-sulfonyl)-3,4-dihydro-2H-benzo-[b][1,4]oxazin-2-yl)methyl)-cyclopentanecarboxamide] | < 500 | < 500 | – | **** (The symbol “****” indicates a value greater than 200) | ** (The symbol “**” indicates a value in the range of greater than 90 to 150) | –

More lines, main results first:

Row | EC50 (RORγ-LBD) [nM] | EC50 (Gal4-RORγ-LBD; [1]) [nM] | EC50 (Gal4-RORγ-LBD; 2 μM ursolic acid) [nM] | Compound | TR-FRET Assay Max Response (RORγ-LBD) | Gal4-RORγ Assay Max Response (Gal4-RORγ-LBD; [1]) | Gal4-RORγ Assay Max Response (Gal4-RORγ-LBD; 2 μM ursolic acid)
3 | < 500 | 500 to 5000 | – | CN(C)c1ccnc(-c2ccc3c(c2)N(S(=O)(=O)c2cccc(C(F)(F)F)c2)C[C@H](CCC(=O)O)O3)n1 [Compound 4AU, (S)-3-(6-(4-(dimethylamino)-pyrimidin-2-yl)-4-((3-(trifluoromethyl)phenyl)-sulfonyl)-3,4-dihydro-2H-benzo[b][1,4]oxazin-2-yl)propanoic acid] | **** (The symbol “****” indicates a value greater than 200) | ** (The symbol “**” indicates a value in the range of greater than 90 to 150) | –
4 | < 500 | – | < 500 | CC(C)(C[C@H]1CN(S(=O)(=O)c2cccc(C(F)(F)F)c2)c2cc(-c3cc(Cl)cc(C(F)(F)F)c3)ccc2O1)C(=O)O [Compound 32AB, (S)-3-(6-(3-chloro-5-(trifluoromethyl)phenyl)-4-((3-(trifluoromethyl)phenyl)sulfonyl)-3,4-dihydro-2H-benzo[b][1,4]oxazin-2-yl)-2,2-dimethylpropanoic acid] | *** (The symbol “***” indicates a value in the range of greater than 150 to 200) | – | ** (The symbol “**” indicates a value in the range of greater than 90 to 150)
5 | < 500 | < 500 | – | C[C@@](O)(C(=O)NC[C@H]1CN(S(=O)(=O)c2cccc(C(F)(F)F)c2)c2cc(-c3cc(F)ccc3F)ccc2O1)C(F)(F)F [Compound 30V, (R)-N-(((S)-6-(2,5-difluoro-phenyl)-4-((3-(trifluoromethyl)-phenyl)sulfonyl)-3,4-dihydro-2H-benzo[b][1,4]oxazin-2-yl)methyl)-3,3,3-trifluoro-2-hydroxy-2-methylpropanamide] | **** (The symbol “****” indicates a value greater than 200) | * (The symbol “*” indicates a value in the range of 25 to 90) | –
6 | < 500 | – | 500 to 5000 | C[C@@H](C[C@H]1CN(S(=O)(=O)c2cccc(C(F)(F)F)c2)c2cc(-c3cccc(Cl)c3F)ccc2O1)C(=O)O [Compound 46E, (S)-3-((S)-6-(3-chloro-2-fluoro-phenyl)-4-((3-(trifluoromethyl)-phenyl)sulfonyl)-3,4-dihydro-2H-benzo[b][1,4]oxazin-2-yl)-2-methylpropanoic acid] | ** (The symbol “**” indicates a value in the range of greater than 90 to 150) | – | * (The symbol “*” indicates a value in the range of 25 to 90)
